Results taken from the supplement of paper PMC6470124.

Key:
[1] = absolute recovery over vacuum-assisted evaporative concentration; higher = better recovery; details: enrichment method: VEC
How it was run: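 Samples of influent (6 mL), effluent (15 mL) and surface or nanopure water (60 mL) were spiked with standards before or after concentration, or left unspiked, at 200 ng/L (nanopure/surface) or 1000 ng/L (wastewater), adjusted by class and compound. Concentration was by evaporation at 55 °C and 20 mbar to about 0.3 mL, followed by adjustment to 0.4 mL and centrifugation. Internal standards were then added for LC-HRMS/MS analysis. Absolute recovery was (response ratio pre − unspiked)/(post − unspiked) × 100, using averages of ≥ 2 replicates.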

[2] = LC retention time (Atlantis T3, 5-95% MeOH gradient, 0.1% formic acid); higher = more retained / less polar
How it was run: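 Retention times were recorded for reference standards (purity ≥ 95%) on a polar reversed-phase C18 column (Atlantis T3, 3 × 150 mm, 3 μm) at 0.3 mL/min. Elution used water and methanol, each with 0.1% formic acid, in a gradient from 5 to 95% methanol over 17.5 min. Detection was by high-resolution tandem mass spectrometry on a QExactive Plus, with positive and negative electrospray in separate runs. Peaks were found and integrated in TraceFinder (5 ppm tolerance, at least three points per peak) and then checked by hand.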

[3] = absolute recovery over mixed-bed multilayer solid-phase extraction; higher = better recovery; details: enrichment method: SPE
How it was run: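 Absolute recovery rests on background-corrected response ratios of pre- versus post-spiked samples, averaged over at least two replicates. Wastewater (100–250 mL, pH 6.5, glass-fibre filtered) was spiked at 1000 ng/L and unfiltered nanopure water (1000 mL) at 200 ng/L, before or after three-layer mixed-bed cartridge extraction or not at all, with exceptions for some classes. Analysis after internal standard addition used liquid chromatography with high-resolution tandem mass spectrometry in both ionisation modes.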

SMILES | absolute recovery ([1]; wastewater effluent) [%] | LC retention time [2] [min] | absolute recovery ([3]; nanopure water) [%] | absolute recovery ([3]; surface water) [%] | absolute recovery ([3]; wastewater effluent) [%] | absolute recovery ([3]; wastewater influent) [%] | absolute recovery ([1]; wastewater influent) [%]
Nc1ccc(C=Cc2ccc(N)cc2S(=O)(=O)[O-])c(S(=O)(=O)[O-])c1 [4-4-diamino-2,2-stilbenedisulfonic-acid] | 30 | 4.15 | 14.5 | 3.4 | 9.1 | 7.8 | 
CCCCCCCCn1sc(Cl)c(Cl)c1=O [4-5-Dichloro-2-n-octyl-isothiazol-3(2H)-on (=DCOIT)] | 19.3 | 22.7 | 93 | 62.5 | 66.5 | 60.8 | 
Cc1c(N)c(=O)n(-c2ccccc2)n1C [4-Aminopyrin (=4-Aminoantipyrin, 4-AA)] | 84.1 | 9.66 | 37.8 | 55.7 | 24.6 | 37.4 | 75.5
Cc1c(N(C)C)c(=O)n(-c2ccccc2)n1C [4-Dimethylaminoantipyrin (=Aminopyrin)] | 89.8 | 9.33 | 72.8 | 79.5 | 77 | 88.2 | 92.9
CC1(C)CC(O)CC(C)(C)[NH+]1CCO [4-Hydroxy-1-(2-hydroxyethyl)-2-2-6-6-tetramethylpiperidine] | 92.4 | 4.55 | 71.9 | 61.7 | 54.6 | 52.7 | 130
O=C([O-])Cc1ccccc1Nc1c(Cl)cc(O)cc1Cl [4-Hydroxydiclofenac A] | 95.8 | 19.2 | 73.5 | 81.4 | 76.2 | 83.3 | 92.8
CC(C)c1ccc(N)cc1 [4-Isopropylanilin] | 93.8 | 10.4 | 95.5 | 80.7 | 80.1 | 84.8 | 96.6
Cn1sc(Cl)cc1=O [5-Chloro-2-methyl-4-isothiazolin-3-on (=CMI)] | 65.2 | 12.4 | 85.1 | 56.7 | 66.5 |  | 
Nc1[nH]c(=O)ncc1F [5-Fluoro-Cytosine] | 107 | 3.63 | 4.4 | 5.9 | 5.4 | 4.3 | 58.4
O=c1[nH]cc(F)c(=O)[nH]1 [5-Fluorouracil] | 79.1 | 5.37 | 5 | 7.7 | 7.4 | 9.3 | 69.1
Cc1ccc2[nH]nnc2c1 [5-Methyl-Benzotriazol] | 102 | 15.4 | 95.7 |  |  | 97.5 | 100
Cc1cncc(C(=O)[O-])c1 [5-Methylpyridine-3-carboxylic-acid] | 94.9 | 6.89 | 109 | 34.2 | 90.9 | 100 | 141
O=C([O-])C=C(F)C(F)(F)C(F)(F)C(F)(F)C(F)(F)C(F)(F)F [6-2-FTUCA] | 143 | 23.2 | 69.6 | 89.6 | 97.8 | 77.9 | 97.7
C=CC1=C(C(=O)[O-])N2C(=O)C([NH3+])C2SC1 (configuration not stated) [7-Amino-3-vinyl-3-cephem-4-carboxylic-acid] | 95.6 | 6.11 | 47.7 |  |  | 37.9 | 96.5
CC1(C(=O)[O-])CCC2(C)CCC3(C)C(=CC(=O)C4C5(C)CCC(O)C(C)(C)C5CCC43C)C2C1 (stereo not drawn) [18-beta-Glycyrrhetinic-acid] | 88.9 | 24.5 | 90.6 | 103 | 84.8 | 90.8 | 27.7
CC(=O)N(C)N(C(=O)C(=O)N(C)C)c1ccccc1 [AMDOPH] | 114 | 13.9 | 94.8 | 93.2 | 93.2 | 90.8 | 114
COc1ccc2c(c1)c(CC(=O)OCC(=O)[O-])c(C)n2C(=O)c1ccc(Cl)cc1 [Acemetacin] | 97.8 | 21.4 | 76.1 | 59.7 | 75.6 | 116 | 99.4
CC(=NC#N)N(C)Cc1ccc(Cl)nc1 [Acetamiprid] | 102 | 14.3 | 110 | 93.8 | 89 |  | 90.8
CC(=O)Nc1nnc(S([NH-])(=O)=O)s1 [Acetazolamide] | 106 | 10.5 | 90.8 | 95.6 | 94.2 | 96.6 | 107
CCOCN(C(=O)CCl)c1c(C)cccc1CC [Acetochlor B] | 83.4 | 20.4 | 94 | 93.3 | 91.1 | 91.6 | 76.8
CNC(=O)ON=CC(C)(C)SC [Aldicarb] | 99.1 | 16 | 88.2 |  |  |  | 91.7
COc1cc2[nH+]c(N(C)CCCNC(=O)C3CCCO3)nc(N)c2cc1OC (configuration not stated) [Alfuzosin] | 99.1 | 13.2 | 93.2 | 96.3 | 96 | 99.6 | 97
COCCCOc1cc(CC(CC([NH3+])C(O)CC(C(=O)NCC(C)(C)C(N)=O)C(C)C)C(C)C)ccc1OC (configuration not stated) [Aliskiren] | 87.1 | 16.7 | 67 | 82.7 | 68.3 | 72.9 | 91.1
[NH3+]C12CC3CC(CC(C3)C1)C2 [Amantadine] | 104 | 12.1 | 90.7 | 79.3 | 86.2 | 87.2 | 114
COc1cc(OC)nc(NC(=O)[N-]S(=O)(=O)N(C)S(C)(=O)=O)n1 [Amidosulfuron] | 112 | 18 | 94.7 | 101 | 93.3 | 111 | 98.2
CC[NH+]1CCCC1CNC(=O)c1cc(S(=O)(=O)CC)c(N)cc1OC (configuration not stated) [Amisulprid] | 106 | 10.4 | 93.1 | 94.8 | 93.4 | 92.7 | 102

SMILES | absolute recovery ([1]; wastewater effluent) [%] | LC retention time [2] [min] | absolute recovery ([3]; nanopure water) [%] | absolute recovery ([3]; surface water) [%] | absolute recovery ([3]; wastewater effluent) [%] | absolute recovery ([3]; wastewater influent) [%] | absolute recovery ([1]; wastewater influent) [%]
CC[N+]1([O-])CCCC1CNC(=O)c1cc(S(=O)(=O)CC)c(N)cc1OC (configuration not stated) [Amisulpride-N-Oxide] | 105 | 11.2 | 99.2 | 95.3 | 93.2 | 93.4 | 105
C[NH+](C)CCC=C1c2ccccc2CCc2ccccc21 [Amitriptyline E] | 110 | 16.1 | 84.5 | 106 | 96.3 | 58.1 | 108
CC1(C)SC(CNC(=O)C([NH3+])c2ccc(O)cc2)[NH2+]C1C(=O)[O-] (configuration not stated) [Amoxicillin-EP-Impurity-E] | 59.2 | 9.5 |  | 12.2 | 17.8 | 30.7 | 96.9
O=C1C=CC(=C2NC=CNC2=O)C=C1 [Amoxicillin-EP-Impurity-F] | 105 | 12.3 | 76.8 | 79.4 | 82.1 | 91.7 | 107
CC([NH3+])Cc1ccccc1 (configuration not stated) [Amphetamin] | 97.8 | 10.4 | 97.7 | 85.5 | 87.4 | 91.8 | 85.5
COC(=O)C(Cc1ccccc1)NC(=O)C([NH3+])CC(=O)[O-] (configuration not stated) [Aspartam] | 48 | 12.6 | 50 | 41.1 | 53.3 | 58.7 | 36.3
COC(=O)[N-]S(=O)(=O)c1ccc(N)cc1 [Asulam] | 95.8 | 10.5 | 101 | 34.2 | 42.6 | 43.9 | 88.4
COC(=O)NC(C(=O)NC(Cc1ccccc1)C(O)CN(Cc1ccc(-c2ccccn2)cc1)NC(=O)C(NC(=O)OC)C(C)(C)C)C(C)(C)C (configuration not stated) [Atazanavir] | 116 | 20.3 | 87.6 | 100 | 95.5 | 95.1 | 61.4
CC(C)[NH2+]CC(O)COc1ccc(CC(=O)[O-])cc1 (configuration not stated) [Atenolol-acid (=Metoprolol acid)] | 108 | 10.5 | 97.3 | 98.9 | 92.1 | 75.4 | 104
NC(=O)Cc1ccc(OCC(O)C[NH3+])cc1 (configuration not stated) [Atenolol-desisopropyl] | 87.6 | 6.53 | 65.5 | 70.3 | 65.2 | 52.7 | 
CC(C)[NH2+]CC(O)COc1ccc(CC(N)=O)cc1 (configuration not stated) [Atenolol] | 107 | 8.64 | 92.1 | 92.6 | 87.4 | 90.6 | 103
C[NH2+]CCC(Oc1ccccc1C)c1ccccc1 (configuration not stated) [Atomoxetin] | 102 | 15.5 | 74.6 | 87 | 79.7 | 94.5 | 96.6
CC(C)c1c(C(=O)Nc2ccccc2)c(-c2ccccc2)c(-c2ccc(F)cc2)n1CCC(O)CC(O)CC(=O)[O-] (configuration not stated) [Atorvastatin] | 49.3 | 19.8 | 31 | 42.7 | 45.5 | 46.5 | 57.8
CCNc1nc(NC(C)C)nc(OC)n1 [Atraton] | 101 | 14.4 | 92.8 | 94.2 | 90.4 | 96 | 102
CCNc1nc(O)nc(NC(C)C)n1 [Atrazin-2-Hydroxy] | 102 | 11.4 | 97.8 | 98 | 94.5 | 90 | 102
CC(C)Nc1nc(N)nc(Cl)n1 [Atrazin-Desethyl] | 102 | 15.3 | 92.5 | 96.9 | 92.1 | 91.6 | 101
CCNc1nc(N)nc(Cl)n1 [Atrazin-Desisopropyl] | 102 | 13.4 | 93.4 | 93.3 | 91.3 | 94.6 | 103
CC(C)Nc1nc(N)nc(O)n1 [Atrazin-desethyl-2-hydroxy] | 107 | 7.67 | 76.8 | 74.2 | 71.2 | 92.3 | 93.7
CCNc1nc(Cl)nc(NC(C)C)n1 [Atrazin] | 99.3 | 18.5 | 96.7 | 98.1 | 93.8 | 91.5 | 97.7
C[NH+]1C2CCC1CC(OC(=O)C(CO)c1ccccc1)C2 (configuration not stated) [Atropine] | 106 | 11.1 | 94.2 | 93.2 | 90.9 | 91.5 | 99.7
COP(=O)(OC)SCn1c(=O)oc2cc(Cl)cnc21 [Azamethiphos] | 82.9 | 16.6 | 65.5 | 65.7 | 65.1 | 50.5 | 67
CCC1OC(=O)C(C)C(OC2CC(C)(OC)C(O)C(C)O2)C(C)C(OC2OC(C)CC([NH+](C)C)C2O)C(C)(O)CC(C)C[NH+](C)C(C)C(O)C1(C)O (configuration not stated) [Azithromycin] | 97.9 | 13 | 77.4 | 93.7 | 90.8 | 96.7 | 
COC=C(C(=O)[O-])c1ccccc1Oc1cc(Oc2ccccc2C#N)ncn1 [Azoxystrobin-acid] | 101 | 18 | 96.4 | 92.6 | 93.5 | 99.1 | 97.7
COC=C(C(=O)OC)c1ccccc1Oc1cc(Oc2ccccc2C#N)ncn1 [Azoxystrobin] | 102 | 18.9 | 96.9 | 96 | 92.8 | 93.6 | 99.4
COC(=O)C(C)N(C(=O)Cc1ccccc1)c1c(C)cccc1C (configuration not stated) [Benalaxyl] | 97.6 | 21.1 | 95.9 | 93 | 96 | 105 | 94.9
